According to patent publication US20250268897A1, “USE OF HETEROCYCLIC COMPOUND IN TREATING DISEASES RELATED TO KINASE DRUG-RESISTANT MUTATION AND METHOD THEREFOR” (Sichuan Kelun-Biotech Biopharmaceutical Co., Ltd., priority 2021, published 2025):

Assays:
Assay type in all cases: biochemical
RET-G810C enzyme = RET-G810C enzyme (Homo sapiens (Human), UniProt P07949, G810C); test: RET inhibition experiment, HTRF KinEASE-TK kit, RET-G810C; conditions: for IC50: Table 6
RET-G810S enzyme = RET-G810S enzyme (Homo sapiens (Human), UniProt P07949, G810S); test: RET inhibition experiment, HTRF KinEASE-TK kit, RET-G810S; conditions: for Inhibition rate on RET-G810S (%) / inhibition at 0.3 µM: compound concentration 300 nM; for inhibition at 0.3 µM: read-out: Inhibition rate on RET-G810S (%); for IC50: Table 4
RET-G810R enzyme = RET-G810R enzyme (Homo sapiens (Human), UniProt P07949, G810R); test: RET inhibition experiment, HTRF KinEASE-TK kit, RET-G810R
Chain of RET-G810R enzyme (P07949 29-1114 G810R): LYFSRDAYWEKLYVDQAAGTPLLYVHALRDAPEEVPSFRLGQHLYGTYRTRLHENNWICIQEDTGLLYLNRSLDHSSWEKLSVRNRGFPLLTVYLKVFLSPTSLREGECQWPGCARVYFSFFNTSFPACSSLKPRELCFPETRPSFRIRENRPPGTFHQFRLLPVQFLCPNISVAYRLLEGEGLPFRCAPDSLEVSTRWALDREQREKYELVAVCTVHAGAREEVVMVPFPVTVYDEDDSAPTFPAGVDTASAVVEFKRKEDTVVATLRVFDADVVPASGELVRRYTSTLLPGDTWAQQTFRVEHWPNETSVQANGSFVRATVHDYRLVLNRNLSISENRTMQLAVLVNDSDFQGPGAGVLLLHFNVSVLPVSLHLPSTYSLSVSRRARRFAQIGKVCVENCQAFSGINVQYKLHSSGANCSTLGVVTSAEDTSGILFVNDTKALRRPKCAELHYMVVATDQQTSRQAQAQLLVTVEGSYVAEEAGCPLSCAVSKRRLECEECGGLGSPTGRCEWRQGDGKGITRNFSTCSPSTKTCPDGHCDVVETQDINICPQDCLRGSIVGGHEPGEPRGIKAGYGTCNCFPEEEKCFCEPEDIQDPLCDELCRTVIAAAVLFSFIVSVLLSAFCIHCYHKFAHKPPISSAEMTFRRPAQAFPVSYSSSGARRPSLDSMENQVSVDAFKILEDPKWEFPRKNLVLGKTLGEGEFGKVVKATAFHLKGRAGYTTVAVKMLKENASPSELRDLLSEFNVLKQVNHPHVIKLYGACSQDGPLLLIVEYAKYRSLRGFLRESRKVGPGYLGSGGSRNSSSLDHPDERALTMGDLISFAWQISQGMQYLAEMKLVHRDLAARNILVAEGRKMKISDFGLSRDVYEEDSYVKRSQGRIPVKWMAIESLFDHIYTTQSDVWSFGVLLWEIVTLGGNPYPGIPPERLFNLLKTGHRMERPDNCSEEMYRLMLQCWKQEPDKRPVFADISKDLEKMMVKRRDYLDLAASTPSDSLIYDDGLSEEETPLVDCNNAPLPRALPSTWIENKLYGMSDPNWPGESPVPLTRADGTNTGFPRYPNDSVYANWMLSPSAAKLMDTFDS

Chain of RET-G810S enzyme (P07949 29-1114 G810S): as the sequence (P07949 29-1114 G810R) above, with R782S counted along it
Chain of RET-G810C enzyme (P07949 29-1114 G810C): as the sequence (P07949 29-1114 G810R) above, with R782C counted along it

For Cc1cc(Nc2cc(C)[nH]n2)nc(-c2ccc(N3CC4CC(C3)N4Cc3ccc(-n4cc(F)c(C(C)(C)O)n4)nc3)nc2)n1.O=C(O)/C=C/C(=O)O [Compound 30-A, Fumarate of 2-(4-fluoro-1-(5-((3-(5-(4-methyl-6-((5-methyl-1H-pyrazol-3-yl)amino)pyrimidin-2-yl)pyridin-2-yl)-3,6-diazabicyclo [3.1.1]heptan-6-yl)methyl)pyridin-2-yl)-1H-pyrazol-3-yl) propan-2-ol], the IC50 (RET-G810C enzyme) was 125 nM and the “Inhibition rate on RET-G810S (%)” value (RET-G810S enzyme) was 99.01 ± 0.15%.
For Cc1cc(Nc2cc(C)[nH]n2)nc(-c2ccc(N3CC4CC(C3)N4Cc3ccc(-n4ccc(F)n4)cc3)nc2)n1 [Compound 17], the “Inhibition rate on RET-G810S (%)” value (RET-G810S enzyme) was 90.64 ± 0.68%.
For Cc1cc(Nc2cc(C)[nH]n2)nc(-c2ccc(N3CC4CC(C3)N4Cc3ccc(-n4cc(C)c(C)n4)nc3)nc2)n1 [Compound 12], the “Inhibition rate on RET-G810C (%)” value (RET-G810C enzyme; compound concentration 300 nM) was 69.10 ± 5.56%, the “Inhibition rate on RET-G810S (%)” value (RET-G810S enzyme) was 99.19 ± 0.55% and the “Inhibition rate on RET-G810R (%)” value (RET-G810R enzyme; compound concentration 300 nM) was 69.44 ± 0.31%.
With Cc1cc(Nc2cc(C)[nH]n2)nc(-c2ccc(N3CC4CC(C3)N4Cc3ccc(-c4ccc(C)o4)nc3)nc2)n1 [Compound 16] the “Inhibition rate on RET-G810S (%)” value (RET-G810S enzyme) was 85.27 ± 0.37%.
Molecule Cc1cc(Nc2cc(C)[nH]n2)nc(-c2ccc(N3CC4CC(C3)N4Cc3ccc(-n4cc(Cl)cn4)nc3)nc2)n1 [Compound 9, 2-(6-(6-((6-(4-chloro-1H-pyrazol-1-yl)pyridin-3-yl)methyl)-3,6-diazabicyclo [3.1.1]heptan-3-yl)pyridin-3-yl)-6-methyl-N-(5-methyl-1H-pyrazol-3-yl) pyrimidin-4-amine] has an inhibition at 0.3 µM (RET-G810S enzyme) of 97.64 ± 0.19% and an inhibition at 0.3 µM (RET-G810R enzyme; compound concentration 300 nM, read-out: Inhibition rate on RET-G810R (%)) of 78.6 ± 4.5%.
Cc1cc(Nc2cc(C)[nH]n2)nc(-c2ccc(N3CC4CC(C3)N4Cc3ccc(-n4ccc(C5CC5)n4)cc3)nc2)n1 [Compound 15, 2-(6-(6-(4-(3-cyclopropyl-1H-pyrazol-1-yl)benzyl)-3,6-diazabicyclo [3.1.1]heptan-3-yl)pyridin-3-yl)-6-methyl-N-(5-methyl-1H-pyrazol-3-yl) pyrimidin-4-amine] was tested, and the inhibition at 0.3 µM (RET-G810S enzyme) was 97.22 ± 0.39%.
With Cc1cc(Nc2cc(C)[nH]n2)nc(-c2ccc(N3CC4CC(C3)N4Cc3ccc(-n4ncc(F)c4C4CC4)nc3)nc2)n1 [Compound 22] the “Inhibition rate on RET-G810C (%)” value (RET-G810C enzyme; compound concentration 300 nM) was 84.26 ± 6.82%.
With Cc1cc(Nc2cc(C)[nH]n2)nc(-c2ccc(N3CC4CC(C3)N4Cc3ccc(-c4ccc[nH]4)nc3)nc2)n1 [Compound 21] the IC50 (RET-G810C enzyme) was 173 nM and the IC50 (RET-G810S enzyme) was 6.61 nM.
Cc1cc(Nc2cc(C)[nH]n2)nc(-c2ccc(N3CC4CC(C3)N4Cc3ccc(-n4ncc(F)c4C)nc3)nc2)n1 [Compound 20] was tested, and the “Inhibition rate on RET-G810C (%)” value (RET-G810C enzyme; compound concentration 300 nM) was 86.86 ± 1.73% and the “Inhibition rate on RET-G810S (%)” value (RET-G810S enzyme) was 96.67 ± 0.03%.
Cc1cc(Nc2cc(C)[nH]n2)nc(-c2ccc(N3CC4CC(C3)N4Cc3ccc(-c4ccco4)nc3)nc2)n1 [Compound 29, 2-(6-(6-((6-(furan-2-yl)pyridin-3-yl)methyl)-3,6-diazabicyclo [3.1.1]heptan-3-yl)pyridin-3-yl)-6-methyl-N-(5-methyl-1H-pyrazol-3-yl) pyrimidin-4-amine] showed an inhibition at 0.3 µM (RET-G810S enzyme) of 93.21 ± 0.91%.
In the case of Cc1ccc(CN2C3CC2CN(c2ccc(-c4nc(C)cc(Nc5cc(C)[nH]n5)n4)cn2)C3)cc1 [Compound 2], the “Inhibition rate on RET-G810R (%)” value (RET-G810R enzyme; compound concentration 300 nM) is reported as 70.41 ± 4.57%.
Cc1cc(Nc2cc(C)[nH]n2)nc(-c2ccc(N3CC4CC(C3)N4Cc3ccc(-c4ccc(F)[nH]4)nc3)nc2)n1 [Compound 27] was tested, and the “Inhibition rate on RET-G810C (%)” value (RET-G810C enzyme; compound concentration 300 nM) was 82.66 ± 2.47% and the IC50 (RET-G810S enzyme) was 23.1 nM.
For Cc1cc(Nc2cc(C)[nH]n2)nc(-c2ccc(N3CC4CC(C3)N4Cc3ccc(-n4cnc(F)c4)nc3)nc2)n1 [Compound 10], the “Inhibition rate on RET-G810S (%)” value (RET-G810S enzyme) was 88.46 ± 2.23% and the “Inhibition rate on RET-G810R (%)” value (RET-G810R enzyme; compound concentration 300 nM) was 72.78 ± 1.58%.
For Cc1cc(Nc2cc(C)[nH]n2)nc(-c2ccc(N3CC4CC(C3)N4Cc3ccc(-n4nccc4C4CC4)cc3)nc2)n1 [Compound 14, 2-(6-(6-(4-(5-cyclopropyl-1H-pyrazol-1-yl)benzyl)-3,6-diazabicyclo [3.1.1]heptan-3-yl)pyridin-3-yl)-6-methyl-N-(5-methyl-1H-pyrazol-3-yl) pyrimidin-4-amine], the inhibition at 0.3 µM (RET-G810S enzyme) was 92.56 ± 0.08%.
With Cc1cc(Nc2cc(C)[nH]n2)nc(-c2ccc(N3CC4CC(C3)N4Cc3ccc(-n4ccc(F)n4)nc3)nc2)n1 [Compound 8] the “Inhibition rate on RET-G810S (%)” value (RET-G810S enzyme) was 83.73 ± 3.16%.
Cc1cc(Nc2cc(C)[nH]n2)nc(-c2ccc(N3CC4CC(C3)N4Cc3cnc(-n4cc(F)cn4)cn3)nc2)n1 [Compound 31, 2-(6-(6-((5-(4-fluoro-1H-pyrazol-1-yl)pyrazin-2-yl)methyl)-3,6-diazabicyclo [3.1.1]hept-3-yl)pyridin-3-yl)-6-methyl-N-(5-methyl-1H-pyrazol-3-yl) pyrimidin-4-amine] gave an inhibition at 0.3 µM (RET-G810C enzyme; compound concentration 300 nM, read-out: Inhibition rate on RET-G810C (%)) of 74.1 ± 1.28% and an inhibition at 0.3 µM (RET-G810S enzyme) of 99.69 ± 0.14%.
With Cc1cc(Nc2cc(C)[nH]n2)nc(-c2ccc(N3CC4CC(C3)N4Cc3ccc(-c4ccn[nH]4)nc3)nc2)n1 [Compound 25] the “Inhibition rate on RET-G810S (%)” value (RET-G810S enzyme) was 97.26 ± 0.72%.
In the case of Cc1cc(Nc2cc(C)[nH]n2)nc(-c2ccc(N3CC4CC(C3)N4Cc3ccc(-n4nccc4OC4CC4)nc3)nc2)n1 [Compound 19], the “Inhibition rate on RET-G810C (%)” value (RET-G810C enzyme; compound concentration 300 nM) is reported as 82.80 ± 3.66% and the “Inhibition rate on RET-G810S (%)” value (RET-G810S enzyme) is reported as 80.98 ± 7.32%.
For Cc1cc(Nc2cc(C)[nH]n2)nc(-c2ccc(N3CC4CC(C3)N4Cc3ccc(-n4ccc(C(C)(C)O)n4)nc3)nc2)n1 [Compound 24, 2-(1-(5-((3-(5-(4-methyl-6-((5-methyl-1H-pyrazol-3-yl)amino)pyrimidin-2-yl)pyridin-2-yl)-3,6-diazabicyclo [3.1.1]heptan-6-yl)methyl)pyridin-2-yl)-1H-pyrazol-3-yl) propan-2-ol], the IC50 (RET-G810S enzyme) was 57.2 nM.
With Cc1cc(Nc2cc(C)[nH]n2)nc(-c2ccc(N3CC4CC(C3)N4Cc3ccc(-n4cc(F)cn4)cc3)nc2)n1 [Compound 7] the “Inhibition rate on RET-G810S (%)” value (RET-G810S enzyme) was 91.80 ± 0.98%.
In the case of Cc1cc(Nc2cc(C)[nH]n2)nc(-c2ccc(N3CC4CC(C3)N4Cc3ccc(-n4cccn4)nc3)nc2)n1 [Compound 5], the “Inhibition rate on RET-G810S (%)” value (RET-G810S enzyme) is reported as 97.89 ± 0.57% and the IC50 (RET-G810R enzyme; Table 2) is reported as 185 nM.
Cc1cc(Nc2cc(C)[nH]n2)nc(-c2ccc(N3CC4CC(C3)N4Cc3ccc(Cl)cn3)nc2)n1 [Compound 3] was tested, and the “Inhibition rate on RET-G810R (%)” value (RET-G810R enzyme; compound concentration 300 nM) was 72.49 ± 3.15%.
With Cc1cc(Nc2cc(C)[nH]n2)nc(-c2ccc(N3CC4CC(C3)N4Cc3ccc(-n4cccn4)cc3)nc2)n1 [Compound 6] the “Inhibition rate on RET-G810S (%)” value (RET-G810S enzyme) was 83.01 ± 1.42% and the “Inhibition rate on RET-G810R (%)” value (RET-G810R enzyme; compound concentration 300 nM) was 77.16 ± 3.87%.
In the case of Cc1cc(Nc2cc(C)[nH]n2)nc(-c2ccc(N3CC4CC(C3)N4Cc3ccc(-n4cc(F)cn4)nc3)nc2)c1 [Compound 13], the “Inhibition rate on RET-G810S (%)” value (RET-G810S enzyme) is reported as 97.21 ± 1.01%.
In the case of Cc1cnn(-c2ccc(CN3C4CC3CN(c3ccc(-c5nc(C)cc(Nc6cc(C)[nH]n6)n5)cn3)C4)cn2)c1 [Compound 4], the “Inhibition rate on RET-G810S (%)” value (RET-G810S enzyme) is reported as 98.89 ± 0.18% and the “Inhibition rate on RET-G810R (%)” value (RET-G810R enzyme; compound concentration 300 nM) is reported as 78.98 ± 0.24%.
With Cc1cc(Nc2cc(C)[nH]n2)nc(-c2ccc(N3CC4CC(C3)N4Cc3ccc(-n4nccc4C4CC4)nc3)nc2)n1 [Compound 11] the “Inhibition rate on RET-G810S (%)” value (RET-G810S enzyme) was 90.87 ± 1.13%.
Molecule Cc1cc(Nc2cc(C)[nH]n2)nc(-c2ccc(N3CC4CC(C3)N4Cc3ccc(-n4nc(F)cc4C)nc3)nc2)n1 [Compound 28, 2-(6-(6-((6-(3-fluoro-5-methyl-1H-pyrazol-1-yl)pyridin-3-yl)methyl)-3,6-diazabicyclo [3.1.1]heptan-3-yl)pyridin-3-yl)-6-methyl-N-(5-methyl-1H-pyrazol-3-yl) pyrimidin-4-amine] has an inhibition at 0.3 µM (RET-G810S enzyme) of 90.8 ± 1.24%.
For Cc1cc(Nc2cc(C)[nH]n2)nc(-c2ccc(N3CC4CC(C3)N4Cc3ccc(-c4cscn4)nc3)nc2)n1 [Compound 26], the “Inhibition rate on RET-G810S (%)” value (RET-G810S enzyme) was 97.83 ± 0.32%.
